Data: patent US9884818B2, “Sulphamoylpyrrolamide derivatives and the use thereof as medicaments for the treatment of hepatitis B” (Janssen Sciences Ireland UC, priority 2013, dated 2018)

Experiments:
HepG2 cells = assay: Cytotoxicity in HepG2 cells, Resazurin viability assay; conditions: read-out: HepG2 4 days CC50; HepG2 cells, incubated for 4 days, Resazurin assay
HBV [1] = assay: Anti-HBV activity, HepG2.2.15 stable transfected cell line, HBV DNA from secreted virions by realtime PCR; assay type: cell-based; conditions: HepG2.2.15 cells, 6 days of treatment, HBV DNA from secreted virions, read-out: HepG2 2.15 EC50
HBV [2] = assay: Anti-HBV activity, HepG2.117 inducibly HBV producing cell line (Tet-off), intracellular HBV DNA by realtime PCR; assay type: cell-based; conditions: HepG2.117 cells, 3 days of treatment, intracellular HBV DNA, read-out: HepG2 117 EC50
[3] = Cytotoxicity in HepG2 cells, Resazurin viability assay; conditions: human, HepG2 cells, HepG2 4 days CC50 (μM), incubated for 4 days, Resazurin assay
[4] = Hepatitis B virus, HepG2.2.15, 144 h
[5] = Hepatitis B virus, HepG2.117, 72 h

For `Cn1cc(S(=O)(=O)NC2CCC(F)(F)C2)cc1C(=O)Nc1cc(F)c(F)c(Cl)c1` (single isomer, unassigned) [Compound 166b, N-(3-Chloro-4,5-difluorophenyl)-4-[(3,3-difluorocyclopentyl)sulfamoyl]-1-methyl-1H-pyrrole-2-carboxamide], the CC50 (HepG2 cells) was 21300 nM, the EC50 (HBV [1]) was 310 nM and the EC50 (HBV [2]) was 170 nM.
In the case of `CC(NS(=O)(=O)c1cc(C(=O)Nc2ccc(F)c(C#N)c2)n(C)c1)C(F)F` (single isomer, unassigned) [Compound 200b, N-(3-Cyano-4-fluorophenyl)-4-{[2,2-difluoro-1-methylethyl]sulfamoyl}-1-methyl-1H-pyrrole-2-carboxamide], the CC50 (HepG2 cells) is reported as over 25000 nM, the EC50 (HBV [1]) is reported as 90 nM and the EC50 (HBV [2]) is reported as 100 nM.
Compound `CC(CC(F)(F)F)NS(=O)(=O)c1cc(C(=O)Nc2cc(F)c(F)c(Cl)c2)n(C)c1` (single isomer, unassigned) [Compound 169b, N-(3-Chloro-4,5-difluorophenyl)-1-methyl-4-[(3,3,3-trifluoro-1-methylpropyl)sulfamoyl]-1H-pyrrole-2-carboxamide] has a CC50 (HepG2 cells) of 17100 nM, an EC50 (HBV [1]) of 40 nM and an EC50 (HBV [2]) of 30 nM.
In the case of `Cn1cc(S(=O)(=O)NC2(C(F)(F)F)CCOC2)cc1C(=O)Nc1ccc(F)c(C#N)c1` (single isomer, unassigned) [Compound 228b, N-(3-Cyano-4-fluorophenyl)-1-methyl-4-{[3-(trifluoromethyl)tetrahydrofuran-3-yl]sulfamoyl}-1H-pyrrole-2-carboxamide], the CC50 (HepG2 cells) is reported as over 25000 nM and the EC50 (HBV [1]) is reported as 30 nM.
`CCC(C)(NS(=O)(=O)c1cc(C(=O)Nc2cc(F)c(F)c(Cl)c2)n(C)c1)C(F)(F)F` (single isomer, unassigned) [Compound 165b, N-(3-chloro-4,5-difluoro-phenyl)-1-methyl-4-[[1-methyl-1-(trifluoro-methyl)propyl]sulfamoyl]pyrrole-2-carboxamide] gave a CC50 (HepG2 cells) of 4800 nM, an EC50 (HBV [1]) of 120 nM and an EC50 (HBV [2]) of 20 nM.
`Cn1cc(S(=O)(=O)NC2CCCC2(F)F)cc1C(=O)Nc1ccc(F)c(Cl)c1F` (single isomer, unassigned) [Compound 236b, N-(3-Chloro-2,4-difluorophenyl)-4-{[2,2-difluorocyclopentyl]sulfamoyl}-1-methyl-1H-pyrrole-2-carboxamide] gave a CC50 (HepG2 cells) of over 25000 nM, an EC50 (HBV [1]) of 60 nM and an EC50 (HBV [2]) of 50 nM.
`C[C@H](NS(=O)(=O)c1cc(C(=O)Nc2ccc(F)c(Cl)c2F)n(C)c1)C(F)(F)F` [Compound 156, N-(3-Chloro-2,4-difluorophenyl)-1-methyl-4-{[(1S)-2,2,2-trifluoro-1-methylethyl]sulfamoyl}-1H-pyrrole-2-carboxamide] gave a CC50 at 4 days [3] of over 25 µM, an EC50 (HBV [1]; [4]) of 40 nM and an EC50 (HBV [2]; [5]) of 30 nM.
In the case of `Cc1c(S(=O)(=O)NC2(C)COC2)cn(C)c1C(=O)Nc1ccc(F)c(Cl)c1F` [Compound 243, N-(3-Chloro-2,4-difluorophenyl)-1,3-dimethyl-4-[(3-methyloxetan-3-yl)sulfamoyl]-1H-pyrrole-2-carboxamide], the CC50 at 4 days [3] is reported as over 25 µM, the EC50 (HBV [1]; [4]) is reported as 110 nM and the EC50 (HBV [2]; [5]) is reported as 100 nM.
`C[C@@H](NS(=O)(=O)c1cn(C)c(C(=O)Nc2ccc(F)c(Cl)c2F)c1F)C(F)(F)F` [Compound 185, N-(3-Chloro-2,4-difluorophenyl)-3-fluoro-1-methyl-4-{[(1R)-2,2,2-trifluoro-1-methylethyl]sulfamoyl}-1H-pyrrole-2-carboxamide] showed a CC50 at 4 days [3] of over 25 µM, an EC50 (HBV [1]; [4]) of 6 nM and an EC50 (HBV [2]; [5]) of 5 nM.
`Cn1cc(S(=O)(=O)NC(C)(C)C)cc1C(=O)Nc1ccc(F)c(F)c1` [Compound 19, 4-(tert-butylsulfamoyl)-N-(3,4-difluorophenyl)-1-methyl-pyrrole-2-carboxamide] gave a CC50 at 4 days [3] of over 25 µM, an EC50 (HBV [1]; [4]) of 60 nM and an EC50 (HBV [2]; [5]) of 80 nM.
For `CCC(CC)(NS(=O)(=O)c1cc(C(=O)Nc2ccc(F)c(Cl)c2F)n(C)c1)C(F)(F)F` [Compound 259, N-(3-chloro-2,4-difluoro-phenyl)-4-[[1-ethyl-1-(trifluoromethyl)-propyl]sulfamoyl]-1-methyl-1H-pyrrole-2-carboxamide], the CC50 at 4 days [3] was over 25 µM, the EC50 (HBV [1]; [4]) was 50 nM and the EC50 (HBV [2]; [5]) was 50 nM.
`Cn1cc(S(=O)(=O)NC2(C)COC2)c(F)c1C(=O)Nc1ccc(F)c(F)c1` [Compound 74, N-(3,4-difluorophenyl)-3-fluoro-1-methyl-4-[(3-methyloxetan-3-yl)-sulfamoyl]pyrrole-2-carboxamide] gave a CC50 at 4 days [3] of over 25 µM, an EC50 (HBV [1]; [4]) of 20 nM and an EC50 (HBV [2]; [5]) of 20 nM.
With `CC(C)NS(=O)(=O)c1cc(C(=O)Nc2ccc(F)c(C#N)c2F)n(C)c1` [Compound 178, N-(3-Cyano-2,4-difluorophenyl)-1-methyl-4-[(1-methylethyl)sulfamoyl]-1H-pyrrole-2-carboxamide] the CC50 at 4 days [3] was over 25 µM, the EC50 (HBV [1]; [4]) was 40 nM and the EC50 (HBV [2]; [5]) was 90 nM.
For `Cn1cc(S(=O)(=O)NCC(F)(F)F)cc1C(=O)Nc1ccc(F)c(Cl)c1` [Compound 131, N-(3-Chloro-4-fluorophenyl)-1-methyl-4-[(2,2,2-trifluoroethyl)sulfamoyl]-1H-pyrrole-2-carboxamide], the CC50 at 4 days [3] was over 25 µM, the EC50 (HBV [1]; [4]) was 10 nM and the EC50 (HBV [2]; [5]) was 10 nM.
`CC(CC(F)(F)F)NS(=O)(=O)c1cc(C(=O)Nc2ccc(F)c(Cl)c2F)n(C)c1` (centres unmarked) [Compound 260, N-(3-chloro-2,4-difluoro-phenyl)-1-methyl-4-[(3,3,3-trifluoro-1-methylpropyl)sulfamoyl]-1H-pyrrole-2-carboxamide] showed a CC50 at 4 days [3] of over 25 µM, an EC50 (HBV [1]; [4]) of 70 nM and an EC50 (HBV [2]; [5]) of 90 nM.
In the case of `C[C@@H](NS(=O)(=O)c1cc(C(=O)Nc2cccc(C#N)c2)n(C)c1)C(F)(F)F` [Compound 158, N-(3-Cyanophenyl)-1-methyl-4-{[(1R)-2,2,2-trifluoro-1-methylethyl]-sulfamoyl}-1H-pyrrole-2-carboxamide], the CC50 at 4 days [3] is reported as over 25 µM, the EC50 (HBV [1]; [4]) is reported as 120 nM and the EC50 (HBV [2]; [5]) is reported as 360 nM.
`CC(C)NS(=O)(=O)c1cn(C)c(C(=O)Nc2ccc(F)c(C#N)c2)c1Cl` [Compound 269, 3-Chloro-N-(3-cyano-4-fluorophenyl)-1-methyl-4-[(1-methylethyl)sulfamoyl]-1H-pyrrole-2-carboxamide] showed a CC50 at 4 days [3] of over 25 µM, an EC50 (HBV [1]; [4]) of 50 nM and an EC50 (HBV [2]; [5]) of 70 nM.
In the case of `Cn1cc(S(=O)(=O)NC2(C)COC2)cc1C(=O)Nc1ccc(F)c(C#N)c1` [Compound 50, N-(3-cyano-4-fluorophenyl)-1-methyl-4-[(3-methyloxetan-3-yl)sulfamoyl]-1H-pyrrole-2-carboxamide], the CC50 at 4 days [3] is reported as over 25 µM, the EC50 (HBV [1]; [4]) is reported as 70 nM and the EC50 (HBV [2]; [5]) is reported as 50 nM.
